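Dose response: 5 concentrations. Exposure: 48 h. Format: 96-well plates. Endpoint: linear interpolation; highest concentration if not reached. TGI denotes the concentration required for complete inhibition of growth.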
Tests used:
Experiment in all cases: growth of human tumour cells (NCI), 48 h
786-0 renal = tested on: 786-0 renal
A498 renal = tested on: A498 renal
A549 NSCLC = tested on: A549 NSCLC
ACHN renal = tested on: ACHN renal
BT-549 breast = tested on: BT-549 breast
CAKI-1 renal = tested on: CAKI-1 renal
CCRF-CEM leukemia = tested on: CCRF-CEM leukemia
COLO 205 colon = tested on: COLO 205 colon
DU-145 prostate = tested on: DU-145 prostate
EKVX NSCLC = tested on: EKVX NSCLC
HCC-2998 colon = tested on: HCC-2998 colon
HCT-116 colon = tested on: HCT-116 colon
HCT-15 colon = tested on: HCT-15 colon
HL-60(TB) leukemia = tested on: HL-60(TB) leukemia
HOP-62 NSCLC = tested on: HOP-62 NSCLC
HOP-92 NSCLC = tested on: HOP-92 NSCLC
HT29 colon = tested on: HT29 colon
IGROV1 ovarian = tested on: IGROV1 ovarian
K-562 leukemia = tested on: K-562 leukemia
KM12 colon = tested on: KM12 colon
LOX IMVI melanoma = tested on: LOX IMVI melanoma
M14 melanoma = tested on: M14 melanoma
MALME-3M melanoma = tested on: MALME-3M melanoma
MCF7 breast = tested on: MCF7 breast
MDA-MB-231 breast = tested on: MDA-MB-231 breast
MDA-MB-435 = tested on: MDA-MB-435
MDA-N = tested on: MDA-N
MOLT-4 leukemia = tested on: MOLT-4 leukemia
NCI-H23 lung = tested on: NCI-H23 lung
NCI-H460 lung = tested on: NCI-H460 lung
NCI-H522 lung = tested on: NCI-H522 lung
NCI/ADR-RES ovarian = tested on: NCI/ADR-RES ovarian
OVCAR-3 ovarian = tested on: OVCAR-3 ovarian
OVCAR-4 ovarian = tested on: OVCAR-4 ovarian
OVCAR-5 ovarian = tested on: OVCAR-5 ovarian
OVCAR-8 ovarian = tested on: OVCAR-8 ovarian
PC-3 prostate = tested on: PC-3 prostate
RXF 393 renal = tested on: RXF 393 renal
SF-268 CNS = tested on: SF-268 CNS
SF-295 CNS = tested on: SF-295 CNS
SF-539 CNS = tested on: SF-539 CNS
SK-MEL-2 melanoma = tested on: SK-MEL-2 melanoma
SK-MEL-28 melanoma = tested on: SK-MEL-28 melanoma
SK-MEL-5 melanoma = tested on: SK-MEL-5 melanoma
SK-OV-3 ovarian = tested on: SK-OV-3 ovarian
SN12C renal = tested on: SN12C renal
SNB-19 CNS = tested on: SNB-19 CNS
SNB-75 CNS = tested on: SNB-75 CNS
SW-620 colon = tested on: SW-620 colon
T-47D breast = tested on: T-47D breast
TK-10 renal = tested on: TK-10 renal
U251 CNS = tested on: U251 CNS
UACC-257 melanoma = tested on: UACC-257 melanoma
UACC-62 melanoma = tested on: UACC-62 melanoma
UO-31 renal = tested on: UO-31 renal
HS 578T breast = tested on: HS 578T breast
NCI-H226 lung = tested on: NCI-H226 lung
RPMI-8226 leukemia = tested on: RPMI-8226 leukemia

O=C(CCO)OCCCCCC/C=C\CCCCCC/C=C\CCCCCCCCOC(=O)CCO
TGI (786-0 renal): 32.5 µM
TGI (A498 renal): 50 µM
TGI (A549 NSCLC): 29.6 µM
TGI (ACHN renal): 64.3 µM
TGI (BT-549 breast): 33.1 µM
TGI (CAKI-1 renal): 39.3 µM
TGI (CCRF-CEM leukemia): 32.2 µM
TGI (COLO 205 colon): > 100 µM
TGI (DU-145 prostate): 30 µM
TGI (EKVX NSCLC): 32.3 µM
TGI (HCC-2998 colon): 30.1 µM
TGI (HCT-116 colon): 29.9 µM
TGI (HCT-15 colon): 29.1 µM
TGI (HL-60(TB) leukemia): 32.1 µM
TGI (HOP-62 NSCLC): 36.1 µM
TGI (HOP-92 NSCLC): 32.5 µM
TGI (HT29 colon): 31.5 µM
TGI (IGROV1 ovarian): 31.2 µM
TGI (K-562 leukemia): 30.4 µM
TGI (KM12 colon): 46 µM
TGI (LOX IMVI melanoma): 36.6 µM
TGI (M14 melanoma): 30.9 µM
TGI (MALME-3M melanoma): 34.7 µM
TGI (MCF7 breast): 40.3 µM
TGI (MDA-MB-231 breast): 32.5 µM
TGI (MDA-MB-435): 45.7 µM
TGI (MDA-N): 33.2 µM
TGI (MOLT-4 leukemia): 28.6 µM
TGI (NCI-H23 lung): 31.8 µM
TGI (NCI-H460 lung): 31.4 µM
TGI (NCI-H522 lung): 30.1 µM
TGI (NCI/ADR-RES ovarian): 32.7 µM
TGI (OVCAR-3 ovarian): 41.2 µM
TGI (OVCAR-4 ovarian): 55.9 µM
TGI (OVCAR-5 ovarian): 32.3 µM
TGI (OVCAR-8 ovarian): 36.3 µM
TGI (PC-3 prostate): 30.8 µM
TGI (RXF 393 renal): 35 µM
TGI (SF-268 CNS): 32.5 µM
TGI (SF-295 CNS): 35.5 µM
TGI (SF-539 CNS): > 100 µM
TGI (SK-MEL-2 melanoma): 31 µM
TGI (SK-MEL-28 melanoma): 37.5 µM
TGI (SK-MEL-5 melanoma): > 100 µM
TGI (SK-OV-3 ovarian): 37.5 µM
TGI (SN12C renal): 31 µM
TGI (SNB-19 CNS): 32.9 µM
TGI (SNB-75 CNS): 34 µM
TGI (SW-620 colon): 80.4 µM
TGI (T-47D breast): 35.9 µM
TGI (TK-10 renal): 31.5 µM
TGI (U251 CNS): 30.3 µM
TGI (UACC-257 melanoma): 30.9 µM
TGI (UACC-62 melanoma): 32.9 µM
TGI (UO-31 renal): 32.6 µM

CC1OC(OC2C(O[C@@H]3C[C@@H]4CC[C@@H]5[C@H](CC[C@]6(C)[C@@H]7[C@H](C[C@@H]56)O[C@]5(CC[C@@H](C)CO5)[C@H]7C)[C@@]4(C)C[C@H]3O)OC(CO)C(OC3OC(CO)C(O)C(O)C3O)C2O)C(O)C(O)C1O (stereo not given in full)
TGI (786-0 renal): 3.32 µM
TGI (A498 renal): 3.1 µM
TGI (A549 NSCLC): 3.02 µM
TGI (ACHN renal): 3.18 µM
TGI (BT-549 breast): 4.44 µM
TGI (CAKI-1 renal): 3.35 µM
TGI (CCRF-CEM leukemia): 3.72 µM
TGI (COLO 205 colon): 3.12 µM
TGI (DU-145 prostate): 4.29 µM
TGI (EKVX NSCLC): 2.91 µM
TGI (HCT-116 colon): 13.1 µM
TGI (HCT-15 colon): 4.66 µM
TGI (HL-60(TB) leukemia): 3.83 µM
TGI (HOP-62 NSCLC): 3.22 µM
TGI (HOP-92 NSCLC): 5.16 µM
TGI (HS 578T breast): 4.38 µM
TGI (HT29 colon): 2.88 µM
TGI (IGROV1 ovarian): 2.39 µM
TGI (K-562 leukemia): 58.1 µM
TGI (KM12 colon): 4.49 µM
TGI (M14 melanoma): 3.07 µM
TGI (MALME-3M melanoma): 2.57 µM
TGI (MCF7 breast): 3.65 µM
TGI (MDA-MB-231 breast): 3.39 µM
TGI (MDA-MB-435): 3.16 µM
TGI (MDA-N): 3.37 µM
TGI (MOLT-4 leukemia): 3.67 µM
TGI (NCI-H226 lung): 3.25 µM
TGI (NCI-H23 lung): 4.12 µM
TGI (NCI-H460 lung): 4.14 µM
TGI (NCI-H522 lung): 2.4 µM
TGI (NCI/ADR-RES ovarian): 3.88 µM
TGI (OVCAR-3 ovarian): 3.04 µM
TGI (OVCAR-4 ovarian): 4.76 µM
TGI (OVCAR-5 ovarian): 3.12 µM
TGI (OVCAR-8 ovarian): 2.9 µM
TGI (PC-3 prostate): 2.85 µM
TGI (RPMI-8226 leukemia): 11.3 µM
TGI (RXF 393 renal): 3.53 µM
TGI (SF-268 CNS): 3.51 µM
TGI (SF-295 CNS): 2.92 µM
TGI (SF-539 CNS): 3.16 µM
TGI (SK-MEL-2 melanoma): 3.28 µM
TGI (SK-MEL-28 melanoma): 3.13 µM
TGI (SK-MEL-5 melanoma): 2.89 µM
TGI (SK-OV-3 ovarian): 3.17 µM
TGI (SN12C renal): 3.05 µM
TGI (SNB-19 CNS): 3.66 µM
TGI (SNB-75 CNS): 5.76 µM
TGI (SW-620 colon): 3.04 µM
TGI (T-47D breast): 11.2 µM
TGI (U251 CNS): 3.2 µM
TGI (UACC-257 melanoma): 3.3 µM
TGI (UACC-62 melanoma): 3.62 µM
TGI (UO-31 renal): 3.81 µM
